The test system of data set [1] is Plasmodium falciparum. Briefly: Antimalarial activity against Plasmodium falciparum K1 infected in human erythrocytes after 72 hrs by lactate dehydrogenase assay. It counts as functional, organism-based. To be noted: K1, 72 h.
The subject of data set [2] is RAW264.7. Kind of data set: Antiinflammatory activity in mouse RAW264.7 cells assessed as inhibition of LPS-induced nitric oxide production preincubated for 3 hrs followed by LPS challenge measured after 20 hrs by Griess assay. In kind it is functional, cell-based. (Griess reagent forms a coloured azo dye with nitrite.)
The nature of data set [3]: Cytotoxicity against human MRC5 cells assessed as decrease in cell viability after 7 days by MTT assay. In kind it is cell-based.
A short description of data set [4]: Selectivity index, ratio of CC50 for human MRC5 cells to IC50 for Plasmodium falciparum K1. It counts as toxicity. Particulars: read-out: Ratio CC50/IC50.
Data set [5] has as its system HeLa. Briefly: Cytotoxicity against human HeLa cells after 48 hrs by CCK8 assay. It counts as functional, cell-based. (In general: Tetrazolium dyes change colour on reduction, which living cells bring about.)
The test system of data set [6] is HL-60. Kind of data set: Cytotoxicity against human HL60 cells after 48 hrs by CCK8 assay. In kind it is functional, cell-based. Particulars: HL-60, 48 h.

As usually defined, the IC50 is the midpoint of a concentration-inhibition curve. The term CC50 denotes the concentration that lowers cell viability or growth by half.

In data set [1], `CC(=O)OC[C@@]1(C)CCC[C@]2(C)[C@H]3Cc4occc4[C@@](C)(O)[C@@H]3[C@@H](O)[C@H](OC(C)=O)[C@@H]12` came in with an IC50 of more than 28.8 µM.

For the molecule `CC(=O)O[C@H]1[C@H](O)[C@@H]2[C@H](Cc3occc3[C@@]2(C)O)[C@@]2(C)CCCC(C)(C)[C@H]12`, the values for the IC50 in data set [2] and in data set [1] were 30.6 µM and 32.2 µM, respectively. Besides, the CC50 at 168 h in data set [3] is 139 µM. Further, in data set [4], the selectivity ratio is 4.3.

Consider `COC(=O)[C@@H]1c2ccoc2C[C@H]2[C@H]1[C@@H](OC(C)=O)[C@H](O)[C@H]1[C@](C)(COC(C)=O)CCC[C@]21C`, for which, in data set [1], the IC50 is more than 27 µM.

`COC(=O)[C@@H]1c2ccoc2C[C@H]2[C@H]1[C@@H](OC(C)=O)[C@@H]1OC(=O)[C@]3(C)CCC[C@@]2(C)[C@@H]13` yielded an IC50 in data set [1] of more than 30 µM.

Take `COC(=O)[C@@H]1c2ccoc2C[C@H]2[C@H]1[C@@H](O)[C@H](O)[C@H]1C(C)(C)CCC[C@]21C`: in data set [1], the IC50 was determined as 22.9 µM. For the same molecule, the CC50 at 168 h in data set [3] is more than 276 µM. The selectivity ratio in data set [4] is more than 12.

Take `COC(=O)[C@@H]1c2ccoc2C[C@H]2[C@H]1[C@@H](OC(C)=O)[C@H](O)[C@H]1C(C)(C)CCC[C@]21C`: in data set [1], the IC50 is more than 30.9 µM.

`CC(=O)OC[C@@H]1c2ccoc2C[C@H]2[C@H]1C[C@H](OC(C)=O)[C@H]1C(C)(C)CCC[C@]21C`: the IC50 in data set [5] was 32.2 µM; in data set [6], 32.6 µM; in data set [1], 23.5 µM. In addition, the CC50 at 168 h in data set [3] was 44.1 µM. The selectivity ratio in data set [4] is 1.9.

For `COC(=O)[C@@H]1c2ccoc2C[C@H]2[C@H]1[C@@H](O)[C@H](O)[C@H]1[C@](C)(CO)CCC[C@]21C`, half-maximal inhibition in data set [6] (IC50) required 9.8 µM.

The molecule `COC(=O)[C@@H]1c2ccoc2C[C@H]2[C@H]1[C@@H](OC(C)=O)[C@H](O)[C@@H]1[C@]2(C)CCC[C@@]1(C)C(=O)OC` gave an IC50 in data set [1] of more than 27.9 µM.

In data set [1], `COC(=O)[C@@H]1c2ccoc2C[C@H]2[C@H]1[C@@H](O)[C@H](OC(C)=O)[C@H]1C(C)(C)CCC[C@]21C` returned an IC50 of more than 30.9 µM.

`C[C@@H]1CC[C@H]2[C@@H](C)C(=O)O[C@@H]3O[C@@]4(C)CC[C@@H]1[C@]32OO4` [ARTEMISININ] gave an IC50 in data set [1] of 0.025 µM.

Values taken from ChEMBL document CHEMBL4130575, “Sucupiranins A-L, Furanocassane Diterpenoids from the Seeds of Bowdichia virgilioides” (J Nat Prod, 2017).
